Source: PubChem BioAssay (NCI)
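Five compound concentrations were applied to cells in 96-well plates for 48 hours; endpoints were derived by simple linear interpolation of the resulting dose-response curve. The concentration for 50% growth inhibition is given as GI50. TGI: concentration producing complete growth inhibition.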

Legend:
Experiment in all cases: NCI anticancer screen, dose series, 48 h
786-0 renal = tested on: 786-0 renal
A498 renal = tested on: A498 renal
A549 NSCLC = tested on: A549 NSCLC
ACHN renal = tested on: ACHN renal
CAKI-1 renal = tested on: CAKI-1 renal
CCRF-CEM leukemia = tested on: CCRF-CEM leukemia
COLO 205 colon = tested on: COLO 205 colon
DU-145 prostate = tested on: DU-145 prostate
EKVX NSCLC = tested on: EKVX NSCLC
HCC-2998 colon = tested on: HCC-2998 colon
HCT-116 colon = tested on: HCT-116 colon
HCT-15 colon = tested on: HCT-15 colon
HL-60(TB) leukemia = tested on: HL-60(TB) leukemia
HOP-62 NSCLC = tested on: HOP-62 NSCLC
HOP-92 NSCLC = tested on: HOP-92 NSCLC
HS 578T breast = tested on: HS 578T breast
HT29 colon = tested on: HT29 colon
IGROV1 ovarian = tested on: IGROV1 ovarian
K-562 leukemia = tested on: K-562 leukemia
KM12 colon = tested on: KM12 colon
LOX IMVI melanoma = tested on: LOX IMVI melanoma
M14 melanoma = tested on: M14 melanoma
MALME-3M melanoma = tested on: MALME-3M melanoma
MCF7 breast = tested on: MCF7 breast
MDA-MB-231 breast = tested on: MDA-MB-231 breast
MDA-MB-435 = tested on: MDA-MB-435
MOLT-4 leukemia = tested on: MOLT-4 leukemia
NCI-H226 lung = tested on: NCI-H226 lung
NCI-H23 lung = tested on: NCI-H23 lung
NCI-H460 lung = tested on: NCI-H460 lung
NCI-H522 lung = tested on: NCI-H522 lung
NCI/ADR-RES ovarian = tested on: NCI/ADR-RES ovarian
OVCAR-3 ovarian = tested on: OVCAR-3 ovarian
OVCAR-5 ovarian = tested on: OVCAR-5 ovarian
OVCAR-8 ovarian = tested on: OVCAR-8 ovarian
PC-3 prostate = tested on: PC-3 prostate
RPMI-8226 leukemia = tested on: RPMI-8226 leukemia
RXF 393 renal = tested on: RXF 393 renal
SF-268 CNS = tested on: SF-268 CNS
SF-295 CNS = tested on: SF-295 CNS
SF-539 CNS = tested on: SF-539 CNS
SK-MEL-2 melanoma = tested on: SK-MEL-2 melanoma
SK-MEL-28 melanoma = tested on: SK-MEL-28 melanoma
SK-MEL-5 melanoma = tested on: SK-MEL-5 melanoma
SK-OV-3 ovarian = tested on: SK-OV-3 ovarian
SNB-19 CNS = tested on: SNB-19 CNS
SW-620 colon = tested on: SW-620 colon
T-47D breast = tested on: T-47D breast
TK-10 renal = tested on: TK-10 renal
U251 CNS = tested on: U251 CNS
UACC-257 melanoma = tested on: UACC-257 melanoma
UACC-62 melanoma = tested on: UACC-62 melanoma
UO-31 renal = tested on: UO-31 renal

In the case of `COc1cc(-c2nn(C)nc2-c2cc3ccccc3s2)cc(OC)c1OC`, the GI50 (786-0 renal) is reported as 312 nM, the TGI (786-0 renal) is reported as greater than 100000 nM and the GI50 (A498 renal) is reported as 41.3 nM. It also gave a TGI (A498 renal) of 7630 nM, a GI50 (A549 NSCLC) of 169 nM and a TGI (A549 NSCLC) greater than 100000 nM. The GI50 (ACHN renal) was 293 nM, the TGI (ACHN renal) was greater than 100000 nM and the GI50 (CAKI-1 renal) was 3770 nM. It also gave a TGI (CAKI-1 renal) greater than 100000 nM, a GI50 (CCRF-CEM leukemia) of 220 nM and a TGI (CCRF-CEM leukemia) greater than 100000 nM. The GI50 (COLO 205 colon) was 82 nM, the TGI (COLO 205 colon) was 515 nM and the GI50 (DU-145 prostate) was 263 nM. For the same compound, the TGI (DU-145 prostate) was greater than 100000 nM, the GI50 (EKVX NSCLC) was 466 nM and the TGI (EKVX NSCLC) was greater than 100000 nM. It also gave a GI50 (HCC-2998 colon) of 407 nM, a TGI (HCC-2998 colon) greater than 100000 nM and a GI50 (HCT-116 colon) of 73.8 nM. The TGI (HCT-116 colon) was greater than 100000 nM, the GI50 (HCT-15 colon) was 58.7 nM and the TGI (HCT-15 colon) was greater than 100000 nM. It also gave a GI50 (HL-60(TB) leukemia) of 48.8 nM, a TGI (HL-60(TB) leukemia) of 1070 nM and a GI50 (HOP-62 NSCLC) of 553 nM. The TGI (HOP-62 NSCLC) was greater than 100000 nM, the GI50 (HOP-92 NSCLC) was 80.6 nM and the TGI (HOP-92 NSCLC) was 78700 nM. The GI50 (HS 578T breast) was 270 nM, the TGI (HS 578T breast) was greater than 100000 nM and the GI50 (HT29 colon) was 55.8 nM. It also gave a TGI (HT29 colon) of 393 nM, a GI50 (IGROV1 ovarian) of 707 nM and a TGI (IGROV1 ovarian) greater than 100000 nM. It also gave a GI50 (K-562 leukemia) of 42.8 nM, a TGI (K-562 leukemia) greater than 100000 nM and a GI50 (KM12 colon) of 54.9 nM. For the same compound, the TGI (KM12 colon) was greater than 100000 nM, the GI50 (LOX IMVI melanoma) was 169 nM and the TGI (LOX IMVI melanoma) was greater than 100000 nM. The GI50 (M14 melanoma) was 76.9 nM, the TGI (M14 melanoma) was greater than 100000 nM and the GI50 (MALME-3M melanoma) was 16900 nM. It also gave a TGI (MALME-3M melanoma) greater than 100000 nM, a GI50 (MCF7 breast) of 40.3 nM and a TGI (MCF7 breast) greater than 100000 nM. It also gave a GI50 (MDA-MB-231 breast) of 1600 nM, a TGI (MDA-MB-231 breast) greater than 100000 nM and a GI50 (MDA-MB-435) of 25.7 nM. The TGI (MDA-MB-435) was 99.5 nM, the GI50 (MOLT-4 leukemia) was 333 nM and the TGI (MOLT-4 leukemia) was greater than 100000 nM. It also gave a GI50 (NCI-H226 lung) greater than 100000 nM, a TGI (NCI-H226 lung) greater than 100000 nM and a GI50 (NCI-H23 lung) of 392 nM. The TGI (NCI-H23 lung) was greater than 100000 nM, the GI50 (NCI-H460 lung) was 69.9 nM and the TGI (NCI-H460 lung) was greater than 100000 nM. It also gave a GI50 (NCI-H522 lung) of 23.2 nM, a TGI (NCI-H522 lung) of 78.7 nM and a GI50 (NCI/ADR-RES ovarian) of 103 nM. For the same compound, the TGI (NCI/ADR-RES ovarian) was greater than 100000 nM, the GI50 (OVCAR-3 ovarian) was 35.4 nM and the TGI (OVCAR-3 ovarian) was 770 nM. The GI50 (OVCAR-5 ovarian) was 2390 nM, the TGI (OVCAR-5 ovarian) was greater than 100000 nM and the GI50 (OVCAR-8 ovarian) was 352 nM. For the same compound, the TGI (OVCAR-8 ovarian) was greater than 100000 nM, the GI50 (PC-3 prostate) was 77.9 nM and the TGI (PC-3 prostate) was greater than 100000 nM. For the same compound, the GI50 (RPMI-8226 leukemia) was 362 nM, the TGI (RPMI-8226 leukemia) was greater than 100000 nM and the GI50 (RXF 393 renal) was 286 nM. For the same compound, the TGI (RXF 393 renal) was 46900 nM, the GI50 (SF-268 CNS) was 638 nM and the TGI (SF-268 CNS) was greater than 100000 nM. For the same compound, the GI50 (SF-295 CNS) was 36 nM, the TGI (SF-295 CNS) was 15300 nM and the GI50 (SF-539 CNS) was 149 nM. For the same compound, the TGI (SF-539 CNS) was 903 nM, the GI50 (SK-MEL-2 melanoma) was 59.7 nM and the TGI (SK-MEL-2 melanoma) was 21200 nM. For the same compound, the GI50 (SK-MEL-28 melanoma) was 13000 nM, the TGI (SK-MEL-28 melanoma) was greater than 100000 nM and the GI50 (SK-MEL-5 melanoma) was 225 nM. For the same compound, the TGI (SK-MEL-5 melanoma) was greater than 100000 nM, the GI50 (SK-OV-3 ovarian) was 311 nM and the TGI (SK-OV-3 ovarian) was greater than 100000 nM. It also gave a GI50 (SNB-19 CNS) of 254 nM, a TGI (SNB-19 CNS) greater than 100000 nM and a GI50 (SW-620 colon) of 63.3 nM. It also gave a TGI (SW-620 colon) greater than 100000 nM, a GI50 (T-47D breast) greater than 100000 nM and a TGI (T-47D breast) greater than 100000 nM. The GI50 (TK-10 renal) was 578 nM, the TGI (TK-10 renal) was greater than 100000 nM and the GI50 (U251 CNS) was 78.3 nM. It also gave a TGI (U251 CNS) of 30500 nM, a GI50 (UACC-257 melanoma) of 51500 nM and a TGI (UACC-257 melanoma) greater than 100000 nM. The GI50 (UACC-62 melanoma) was 53.8 nM, the TGI (UACC-62 melanoma) was greater than 100000 nM and the GI50 (UO-31 renal) was 744 nM. The TGI (UO-31 renal) was greater than 100000 nM.
